Measurements from PubChem BioAssay (NCI).
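Method: 48-hour compound exposure of cells in 96-well plates, five concentrations, linear interpolation of endpoints. Here, GI50 denotes the concentration required for 50% inhibition of growth. The concentration for full growth arrest is given as TGI.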

What was measured:
Assay in all cases: growth of human tumour cells (NCI), 48 h
[1] = test system: NCI-H522 lung
[2] = test system: CCRF-CEM leukemia
[3] = test system: SF-295 CNS
[4] = test system: A549 NSCLC
[5] = test system: K-562 leukemia
[6] = test system: HL-60(TB) leukemia
[7] = test system: RXF 393 renal
[8] = test system: NCI-H460 lung
[9] = test system: NCI-H23 lung
[10] = test system: IGROV1 ovarian
[11] = test system: SF-268 CNS
[12] = test system: MALME-3M melanoma
[13] = test system: SW-620 colon
[14] = test system: BT-549 breast
[15] = test system: HCT-15 colon
[16] = test system: NCI/ADR-RES ovarian
[17] = test system: SK-MEL-2 melanoma
[18] = test system: PC-3 prostate
[19] = test system: MOLT-4 leukemia
[20] = test system: UO-31 renal
[21] = test system: HS 578T breast
[22] = test system: SNB-75 CNS
[23] = test system: ACHN renal
[24] = test system: UACC-62 melanoma
[25] = test system: LOX IMVI melanoma
[26] = test system: HT29 colon
[27] = test system: KM12 colon
[28] = test system: EKVX NSCLC

`COc1ccc2c(c1)C=CC1(O2)Oc2ccc(OC)cc2C=C1C` (stereo not given) gave a GI50 [1] of 0.303 µM, a TGI [1] of 24.1 µM and a GI50 [2] of 0.366 µM. The TGI [2] was 4.08 µM, the GI50 [3] was 0.384 µM and the TGI [3] was greater than 100 µM. It also gave a GI50 [4] of 1 µM, a TGI [4] greater than 100 µM and a GI50 [5] of 0.358 µM. It also gave a TGI [5] greater than 100 µM, a GI50 [6] of 0.288 µM and a GI50 [7] of 0.432 µM. It also gave a TGI [7] of 17.7 µM, a GI50 [8] of 0.422 µM and a TGI [8] of 2.05 µM. For the same compound, the GI50 [9] was 1.37 µM, the TGI [9] was greater than 100 µM and the GI50 [10] was 0.704 µM. The TGI [10] was greater than 100 µM, the GI50 [11] was 1.81 µM and the TGI [11] was greater than 100 µM. For the same compound, the GI50 [12] was 33 µM, the TGI [12] was greater than 100 µM and the GI50 [13] was 0.38 µM. It also gave a TGI [13] of 16.7 µM, a GI50 [14] of 0.332 µM and a TGI [14] of 1.69 µM. For the same compound, the GI50 [15] was 0.453 µM, the TGI [15] was 31.4 µM and the GI50 [16] was 0.397 µM. For the same compound, the TGI [16] was greater than 100 µM, the GI50 [17] was 0.392 µM and the TGI [17] was 54 µM. The GI50 [18] was 0.461 µM, the TGI [18] was greater than 41.9 µM and the GI50 [19] was 0.447 µM. The TGI [19] was greater than 71.6 µM, the GI50 [20] was 1.31 µM and the TGI [20] was greater than 46.9 µM. The GI50 [21] was 0.348 µM, the TGI [21] was greater than 100 µM and the GI50 [22] was 0.273 µM. The TGI [22] was greater than 100 µM, the GI50 [23] was 0.673 µM and the TGI [23] was greater than 54.5 µM. For the same compound, the GI50 [24] was 0.39 µM, the TGI [24] was greater than 32.9 µM and the GI50 [25] was 0.647 µM. For the same compound, the TGI [25] was 8.52 µM, the GI50 [26] was 0.345 µM and the TGI [26] was 1.62 µM. For the same compound, the GI50 [27] was 0.506 µM, the TGI [27] was greater than 100 µM and the GI50 [28] was 1.82 µM. The TGI [28] was greater than 100 µM.
